Results: patent US20220056043A1, “NITROGEN-CONTAINING FUSED CYCLIC COMPOUND, PREPARATION METHOD THEREFOR AND USE THEREOF” (SICHUAN KELUN-BIOTECH BIOPHARMACEUTICAL CO., LTD., priority 2019, published 2022)
Where two headings read alike, the source gives them in different places.

What was measured:
[1] = target: T1, hTLR7 (Homo sapiens, UniProt Q9NYK1); test: Agonistic effect on hTLR7, HEK-hTLR7-NF-κB-Luciferase reporter cells; assay type: cell-based; settings: 16 hours
T1 construct: host or cells: HEK-hTLR7-NF-κB-Luciferase cells
T1 sequence (Q9NYK1 27-1049): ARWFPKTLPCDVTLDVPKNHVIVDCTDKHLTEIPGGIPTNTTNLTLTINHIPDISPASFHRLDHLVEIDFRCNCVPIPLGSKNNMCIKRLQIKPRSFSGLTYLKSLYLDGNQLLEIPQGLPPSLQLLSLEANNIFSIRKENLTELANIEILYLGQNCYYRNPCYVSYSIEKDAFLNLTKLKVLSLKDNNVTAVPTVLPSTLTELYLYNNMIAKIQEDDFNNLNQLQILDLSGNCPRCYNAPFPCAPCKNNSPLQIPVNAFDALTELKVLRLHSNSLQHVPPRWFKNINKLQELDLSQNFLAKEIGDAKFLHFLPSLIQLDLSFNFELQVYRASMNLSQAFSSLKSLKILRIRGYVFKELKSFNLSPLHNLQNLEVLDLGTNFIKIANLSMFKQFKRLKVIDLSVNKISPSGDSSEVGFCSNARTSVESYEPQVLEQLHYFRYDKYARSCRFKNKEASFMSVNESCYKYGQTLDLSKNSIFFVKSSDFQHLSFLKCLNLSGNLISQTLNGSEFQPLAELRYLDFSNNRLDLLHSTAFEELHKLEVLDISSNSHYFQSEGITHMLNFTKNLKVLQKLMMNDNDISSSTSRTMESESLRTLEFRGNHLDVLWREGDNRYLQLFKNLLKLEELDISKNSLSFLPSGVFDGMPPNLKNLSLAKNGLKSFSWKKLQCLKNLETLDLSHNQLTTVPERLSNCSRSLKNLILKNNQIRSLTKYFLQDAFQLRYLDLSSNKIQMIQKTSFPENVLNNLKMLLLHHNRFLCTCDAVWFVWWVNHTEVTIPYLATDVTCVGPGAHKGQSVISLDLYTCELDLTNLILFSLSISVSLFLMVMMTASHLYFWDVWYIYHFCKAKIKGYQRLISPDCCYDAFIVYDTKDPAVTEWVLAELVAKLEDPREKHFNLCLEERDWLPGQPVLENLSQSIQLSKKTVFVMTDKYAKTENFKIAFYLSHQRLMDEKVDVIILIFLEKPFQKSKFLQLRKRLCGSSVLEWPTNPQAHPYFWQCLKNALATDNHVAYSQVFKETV
In short: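 HEK cells carrying human TLR7 and NF-κB-luciferase reporter, […] in DMEM with 10% FBS, exposed to compound for 16 h at 37 °C, 5% CO2; serves as specificity counterscreen to NLRP3 activity. Luminescence (RLU) after 5 min with luciferase reagent; EC50 by four-parameter variable-slope fit.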

[2] = tested on: THP1-defNLRP3 cells; test: Agonistic effect on the expression of IL-1β in NLRP3 deficient THP1 cells (THP1-defNLRP3) after PMA-induced differentiation (HTRF); assay type: cell-based, human; settings: IL-1β level, PMA-differentiated NLRP3 deficient THP1 cells, 6 hours, highest test concentration 30 μM, read-out: hNLRP3 EC50 (μM) (THP-1defNLRP3)
In short: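 PMA-differentiated (1 μM, 24 h) NLRP3-deficient THP1 macrophages, 1×10^5 cells/well in RPMI 1640 with 2% heat-inactivated FBS, treated with compound for 6 h at 37 °C. Supernatant IL-1β measured by HTRF. EC50 from four-parameter variable-slope fit.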

EC50 [1]	EC50 ([2]; Homo sapiens, THP-1)	EC50 [2]	SMILES
> 100 µM	> 30 µM	–	Nc1cc(NC(CCO)c2ccccc2)c2sc(-c3ccn[nH]3)cc2n1 (centres unmarked) [Compound 123, 3-((5-amino-2-(1H-pyrazol-5-yl)thieno[3,2-b]pyridin-7-yl)amino)-3-phenyl-1-propanol]
> 100 µM	> 30 µM	–	C[C@@H](CCO)Nc1cc(N)nc2cc(-c3ccn[nH]3)sc12 [Compound 125, (S)-3-((5-amino-2-(1H-pyrazol-5-yl)thieno[3,2-b]pyridin-7-yl)amino)butanol]
> 100 µM	> 30 µM	–	CCC(=O)N(CC)CCNc1cc(N)nc2cc(-c3ccn[nH]3)sc12 [Compound 145, N-(2-((5-amino-2-(1H-pyrazol-5-yl)thieno[3,2-b]pyridin-7-yl)amino)ethyl)-N-ethylpropionamide]
> 100 µM	> 30 µM	–	CNC(=O)CNc1cc(N)nc2cc(-c3ccn[nH]3)sc12 [Compound 137, 2-((5-amino-2-(1H-pyrazol-5-yl)thieno[3,2-b]pyridin-7-yl)amino)-N-methylacetamide]
> 100 µM	> 30 µM	–	CN(CCCO)c1cc(N)nc2cc(-c3ccn[nH]3)sc12 [Compound 127, 3-((5-amino-2-(1H-pyrazol-5-yl)thieno[3,2-b]pyridin-7-yl)(methyl)amino)-1-propanol]
> 100 µM	> 30 µM	–	CC(C)CNc1cc(N)nc2cc(-c3ccn[nH]3)sc12 [Compound 141, N^7-isobutyl-2-(1H-pyrazol-5-yl)thieno[3,2-b]pyridin-5,7-diamine]
> 100 µM	> 30 µM	–	CN(CCO)c1cc(N)nc2cc(-c3ccn[nH]3)sc12 [Compound 139, 2-((5-amino-2-(1H-pyrazol-5-yl)thieno[3,2-b]pyridin-7-yl)(methyl)amino)ethanol]
> 100 µM	> 30 µM	–	Nc1cc(NC2CCC(F)(F)CC2)c2sc(-c3ccn[nH]3)cc2n1 [Compound 143, N^7-(4,4-difluorocyclohexyl)-2-(1H-pyrazol-5-yl)thieno[3,2-b]pyridin-5,7-diamine]
> 100 µM	–	> 30 µM	Nc1cc(N[C@@H]2CC[C@@H](O)C2)c2sc(-c3ccn[nH]3)cc2n1 [Compound 30, (1R,3R)-3-((5-amino-2-(1H-pyrazol-5-yl)thieno[3,2-b]pyridin-7-yl)amino)cyclopentanol]
> 100 µM	> 30 µM	–	CC(C)(O)CNc1cc(N)nc2cc(-c3ccn[nH]3)sc12 [Compound 28, (1-(5-amino-2-(1H-pyrazol-5-yl)thieno[3,2-b]pyridin-7-yl)amino)-2-methyl-2-propanol]
> 100 µM	> 30 µM	–	C[C@@H]1CN(c2cc(N)nc3cc(-c4ccn[nH]4)sc23)C[C@@H](C)O1 [Compound 148, 7-((2R,6R)-2,6-dimethylmorpholino)-2-(1H-pyrazol-5-yl)thieno[3,2-b]pyridine-5-amine]
> 100 µM	> 30 µM	–	C[C@]1(O)C[C@@H](Nc2cc(N)nc3cc(-c4ccn[nH]4)sc23)C1 [Compound 129, (1s,3s)-3-((5-amino-2-(1H-pyrazol-5-yl)thieno[3,2-b]pyridin-7-yl)amino)-1-methylcyclobutanol]
> 100 µM	> 30 µM	–	Cc1noc(C)c1CNc1cc(N)nc2cc(-c3ccn[nH]3)sc12 [Compound 149, N^7-((3,5-dimethylisoxazol-4-yl)methyl)-2-(1H-pyrazol-5-yl)thieno[3,2-b]pyridine-5,7-diamine]
> 100 µM	> 30 µM	–	CC(C)C[C@H](CO)Nc1cc(N)nc2cc(-c3ccn[nH]3)sc12 [Compound 144, (R)-2-((5-amino-2-(1H-pyrazol-5-yl)thieno[3,2-b]pyridin-7-yl)amino)-4-methyl-1-pentanol]
> 100 µM	> 30 µM	–	Cc1cccnc1CNc1cc(N)nc2cc(-c3ccn[nH]3)sc12 [Compound 134, N^7-((3-methylpyridin-2-yl)methyl)-2-(1H-pyrazol-5-yl)thieno[3,2-b]pyridine-5,7-diamine]
> 100 µM	> 30 µM	–	Nc1cc(N[C@H]2CC[C@H](O)CC2)c2sc(-c3ccn[nH]3)cc2n1 [Compound 147, (1R,4R)-4-((5-amino-2-(1H-pyrazol-5-yl)thieno[3,2-b]pyridin-7-yl)amino)cyclohexanol]
> 100 µM	> 30 µM	–	C[C@@H]1CN(CCNc2cc(N)nc3cc(-c4ccn[nH]4)sc23)C[C@@H](C)O1 [Compound 124, N^7-(2-((2R,6R)-2,6-dimethylmorpholino)ethyl)-2-(1H-pyrazol-5-yl)thieno[3,2-b]pyridine-5,7-diamine]
> 100 µM	> 30 µM	–	Nc1cc(NCC2CCC2)c2sc(-c3ccn[nH]3)cc2n1 [Compound 126, N^7-(cyclobutylmethyl)-2-(1H-pyrazol-5-yl)thieno[3,2-b]pyridine-5,7-diamine]
> 100 µM	> 30 µM	–	CCN(CCNc1cc(N)nc2cc(-c3ccn[nH]3)sc12)C(=O)Cc1cccc(C)c1 [Compound 140, N-(2-((5-amino-2-(1H-pyrazol-5-yl)thieno[3,2-b]pyridin-7-yl)amino)ethyl)-N-ethyl-2-(m-tolyl)acetamide]
> 100 µM	> 30 µM	–	COC[C@@H](C)Nc1cc(N)nc2cc(-c3ccn[nH]3)sc12 [Compound 133, (R)—N^7-(1-methoxyprop-2-yl)-2-(1H-pyrazol-5-yl)thieno[3,2-b]pyridine-5,7-diamine]
> 100 µM	> 30 µM	–	CCN(CCNc1cc(N)nc2cc(-c3ccn[nH]3)sc12)C(=O)C1CC1 [Compound 146, N-(2-((5-amino-2-(1H-pyrazol-5-yl)thieno[3,2-b]pyridin-7-yl)amino)ethyl)-N-ethylcyclopropyl formamide]
> 100 µM	> 30 µM	–	COCCNc1cc(N)nc2c(C)c(-c3cc[nH]n3)sc12 [Compound 152]
> 100 µM	> 30 µM	–	Nc1cc(NCC(=O)NC2CC2)c2sc(-c3ccn[nH]3)cc2n1 [Compound 138, 2-((5-amino-2-(1H-pyrazol-5-yl)thieno[3,2-b]pyridin-7-yl)amino)-N-cyclopropylacetamide]
> 100 µM	> 30 µM	–	Nc1cc(NCCCN2CCCC2=O)c2sc(-c3ccn[nH]3)cc2n1 [Compound 150]
> 100 µM	> 30 µM	–	Nc1cc(NCCN2CCCC2=O)c2sc(-c3ccn[nH]3)cc2n1 [Compound 135, 1-(2-((5-amino-2-(1H-pyrazol-5-yl)thieno[3,2-b]pyridin-7-yl)amino)ethyl)pyrrolidin-2-one]
> 100 µM	> 30 µM	–	Cc1c(-c2cc[nH]n2)sc2c(NCC(C)(C)CO)cc(N)nc12 [Compound 151]
> 100 µM	> 30 µM	–	C[C@H](Nc1cc(N)nc2cc(-c3ccn[nH]3)sc12)c1cccc(C(F)(F)F)c1 [Compound 131, (S)-2-(1H-pyrazol-5-yl)-N^7-(1-(3-(trifluoromethyl)phenyl)ethyl)thieno[3,2-b]pyridine-5,7-diamine]
> 100 µM	> 30 µM	–	Nc1cc(NCC(CO)CO)c2sc(-c3ccn[nH]3)cc2n1 [Compound 136]
> 100 µM	> 30 µM	–	C[C@H]1CC[C@H](Nc2cc(N)nc3cc(-c4ccn[nH]4)sc23)CC1 [Compound 128, N^7-((1R,4R)-4-methylcyclohexyl)-2-(1H-pyrazol-5-yl)thieno[3,2-b]pyridine-5,7-diamine]
> 100 µM	> 30 µM	–	CC[C@@H](CO)Nc1cc(N)nc2cc(-c3ccn[nH]3)sc12 [Compound 132, (S)-2-((5-amino-2-(1H-pyrazol-5-yl)thieno[3,2-b]pyridin-7-yl)amino)-1-butanol]

SMILES	EC50 [1]	EC50 ([2]; Homo sapiens, THP-1)	EC50 [2]
Nc1cc(N[C@H]2[C@@H]3CNC[C@@H]32)c2sc(-c3ccn[nH]3)cc2n1 [Compound 142, N^7-((1R,5S,6S)-3-azabicyclo[3.1.0]hex-6-yl)-2-(1H-pyrazol-5-yl)thieno[3,2-b]pyridin-5,7-diamine]	> 100 µM	> 30 µM	–
